Data from ChEMBL document CHEMBL1127915, “Isolation and structure of the symmetrical disteroidal alkaloids cephalostatin 12 and cephalostatin 13” (1994).
≈ marks a conversion by molar mass, not a printed value.

Tests used:
[1] = test system: Panel (Carcinoma cell lines); assay: Inhibitory activity against human cancer cell line growth was determined; assay type: functional
[2] = test system: Panel (Carcinoma cell lines); assay: Effective dose for human cancer cell line growth inhibition was determined; assay type: functional; conditions: read-out: ED50 (the source's name)

GI50 [1] [nM]	EC50 [2] [µg/mL]	Structure (SMILES)
1		C[C@@H]1[C@]2(O[C@H]3C=C4[C@@H]5CC[C@H]6Cc7nc8c(nc7C[C@]6(C)[C@H]5C[C@@H](O)[C@]4(C)[C@]31O)C[C@@H]1CC[C@H]3C4=CC[C@@H]5[C@H](C)[C@@]6(OC[C@]45C(=O)C[C@@H]3[C@@]1(C)C8)OC(C)(C)C[C@H]6O)O[C@](C)(CO)C[C@H]2O [CEPHALOSTATIN 1]
400	0.072 (≈ 0.0762 µM)	C[C@@H]1[C@]2(O[C@H]3C=C4[C@@H]5CC[C@H]6Cc7nc8c(nc7C[C@]6(C)[C@H]5C[C@@H](O)[C@]4(C)[C@]31O)C[C@@H]1CC[C@H]3C4=C[C@@H]5O[C@]6(O[C@](C)(CO)C[C@H]6O)[C@@H](C)[C@]5(O)[C@@]4(C)[C@H](O)C[C@@H]3[C@@]1(C)C8)O[C@](C)(CO)C[C@H]2O [CEPHALOSTATIN 12]
> 1000	0.046 (≈ 0.0479 µM)	C[C@@H]1[C@]2(O[C@H]3C=C4[C@@H]5CC[C@H]6Cc7nc8c(nc7C[C@]6(C)[C@H]5C[C@@H](O)[C@]4(C)[C@]31O)C[C@@H]1CC[C@H]3C4=C[C@@H]5O[C@]6(O[C@](C)(CO)C[C@H]6O)[C@@H](C)[C@]5(O)[C@@]4(C)[C@H](O)C[C@@H]3[C@@]1(C)[C@H]8O)O[C@](C)(CO)C[C@H]2O [CEPHALOSTATIN 13]
